Laboratory results reported in the NIST ThermoML archive (doi:10.1021/je400004j).
Numbers after ± are expanded uncertainties.

What was measured:
[1] = 298.15 K; for surface tension liquid-gas: Ring tensiometer; for mass density: 101.33 kPa, Liquid, Vibrating tube method
[2] = xn = mol fraction of the nth substance listed; settings: 298.15 K, Ring tensiometer

CCOP(=O)([O-])OCC.CCn1cc[n+](CC)c1 [1,3-diethyl-1H-imidazol-3-ium diethyl phosphate]
surface tension liquid-gas [1]: 35.5 ± 0.5 mN/m | mass density [1]: 1125.96 ± 0.15 kg/m3

COP(=O)([O-])OC.Cn1cc[n+](C)c1 [1,3-dimethylimidazolium dimethylphosphate]
surface tension liquid-gas [1]: 48.4 ± 0.6 mN/m | mass density [1]: 1252.6 ± 0.22 kg/m3

CCCCn1cc[n+](CC)c1.CCOP(=O)([O-])OCC [1-butyl-3-ethyl-1H-imidazol-3-ium diethyl phosphate]
surface tension liquid-gas [1]: 32.2 ± 0.5 mN/m | mass density [1]: 1083.21 ± 0.1 kg/m3

CCCCn1cc[n+](C)c1.COP(=O)([O-])OC [1-butyl-3-methyl-1H-imidazolium dimethylphosphate]
surface tension liquid-gas [1]: 38 ± 0.5 mN/m

CCCCOP(=O)([O-])OCCCC.CCCCn1cc[n+](C)c1 [1-butyl-3-methylimidazolium dibutyl phosphate]
surface tension liquid-gas [1]: 29.4 ± 0.4 mN/m | mass density [1]: 1046.18 ± 0.09 kg/m3

CCOP(=O)([O-])OCC.CCn1cc[n+](C)c1 [1-ethyl-3-methylimidazolium diethyl phosphate]
surface tension liquid-gas [1]: 37.1 ± 0.5 mN/m | mass density [1]: 1148.86 ± 0.14 kg/m3

CCOP(=O)([O-])OCC.CCn1cc[n+](C)c1 [1-ethyl-3-methylimidazolium diethyl phosphate] + CCO
surface tension liquid-gas ([2]; x1 = 0.1): 22.6 ± 0.3 mN/m | surface tension liquid-gas ([2]; x1 = 0.2): 23.6 ± 0.4 mN/m | surface tension liquid-gas ([2]; x1 = 0.3): 25 ± 0.4 mN/m | surface tension liquid-gas ([2]; x1 = 0.4): 26.6 ± 0.4 mN/m | surface tension liquid-gas ([2]; x1 = 0.5): 28.2 ± 0.4 mN/m | surface tension liquid-gas ([2]; x1 = 0.6): 30.1 ± 0.4 mN/m | surface tension liquid-gas ([2]; x1 = 0.7): 31.6 ± 0.5 mN/m | surface tension liquid-gas ([2]; x1 = 0.8): 33.2 ± 0.5 mN/m | surface tension liquid-gas ([2]; x1 = 0.9): 34.8 ± 0.5 mN/m | surface tension liquid-gas ([2]; x1 = 1): 37.1 ± 0.5 mN/m

CCOP(=O)([O-])OCC.CCn1cc[n+](C)c1 [1-ethyl-3-methylimidazolium diethyl phosphate] + CO
surface tension liquid-gas ([2]; x1 = 0.1): 26.4 ± 0.4 mN/m | surface tension liquid-gas ([2]; x1 = 0.2): 28.9 ± 0.4 mN/m | surface tension liquid-gas ([2]; x1 = 0.3): 30.4 ± 0.4 mN/m | surface tension liquid-gas ([2]; x1 = 0.4): 31.9 ± 0.5 mN/m | surface tension liquid-gas ([2]; x1 = 0.5): 33.5 ± 0.5 mN/m | surface tension liquid-gas ([2]; x1 = 0.6): 34.7 ± 0.5 mN/m | surface tension liquid-gas ([2]; x1 = 0.7): 35.3 ± 0.5 mN/m | surface tension liquid-gas ([2]; x1 = 0.8): 37.2 ± 0.5 mN/m | surface tension liquid-gas ([2]; x1 = 0.9): 37.3 ± 0.5 mN/m | surface tension liquid-gas ([2]; x1 = 1): 37.1 ± 0.5 mN/m

CCOP(=O)([O-])OCC.CCn1cc[n+](C)c1 [1-ethyl-3-methylimidazolium diethyl phosphate] + O
surface tension liquid-gas ([2]; x1 = 0.02): 49.7 ± 1.4 mN/m | surface tension liquid-gas ([2]; x1 = 0.04): 46.5 ± 0.6 mN/m | surface tension liquid-gas ([2]; x1 = 0.08): 44.2 ± 0.6 mN/m | surface tension liquid-gas ([2]; x1 = 0.1): 42.6 ± 0.6 mN/m | surface tension liquid-gas ([2]; x1 = 0.12): 41.4 ± 0.6 mN/m | surface tension liquid-gas ([2]; x1 = 0.14): 40.7 ± 0.6 mN/m | surface tension liquid-gas ([2]; x1 = 0.2): 38.9 ± 0.5 mN/m | surface tension liquid-gas ([2]; x1 = 0.3): 38 ± 0.5 mN/m | surface tension liquid-gas ([2]; x1 = 0.4): 37.8 ± 0.5 mN/m | surface tension liquid-gas ([2]; x1 = 0.5): 37.5 ± 0.5 mN/m | surface tension liquid-gas ([2]; x1 = 0.6): 37.4 ± 0.5 mN/m | surface tension liquid-gas ([2]; x1 = 0.7): 37.3 ± 0.5 mN/m | surface tension liquid-gas ([2]; x1 = 0.8): 37.2 ± 0.5 mN/m | surface tension liquid-gas ([2]; x1 = 0.9): 37.3 ± 0.5 mN/m | surface tension liquid-gas ([2]; x1 = 1): 37.1 ± 0.5 mN/m

CCn1cc[n+](C)c1.COP(=O)([O-])OC [1-ethyl-3-methylimidazolium dimethylphosphate]
surface tension liquid-gas [1]: 44.3 ± 0.62 mN/m

CCn1cc[n+](C)c1.COP(=O)([O-])OC [1-ethyl-3-methylimidazolium dimethylphosphate] + CCO
surface tension liquid-gas ([2]; x1 = 0.1): 22.9 ± 0.4 mN/m | surface tension liquid-gas ([2]; x1 = 0.2): 24 ± 0.4 mN/m | surface tension liquid-gas ([2]; x1 = 0.3): 25.5 ± 0.4 mN/m | surface tension liquid-gas ([2]; x1 = 0.4): 27.5 ± 0.4 mN/m | surface tension liquid-gas ([2]; x1 = 0.5): 29.5 ± 0.4 mN/m | surface tension liquid-gas ([2]; x1 = 0.6): 31.7 ± 0.5 mN/m | surface tension liquid-gas ([2]; x1 = 0.7): 34 ± 0.5 mN/m | surface tension liquid-gas ([2]; x1 = 0.8): 36.5 ± 0.5 mN/m | surface tension liquid-gas ([2]; x1 = 0.9): 39.3 ± 0.6 mN/m | surface tension liquid-gas ([2]; x1 = 1): 44.3 ± 0.6 mN/m

CCn1cc[n+](C)c1.COP(=O)([O-])OC [1-ethyl-3-methylimidazolium dimethylphosphate] + CO
surface tension liquid-gas ([2]; x1 = 0.1): 26.7 ± 0.4 mN/m | surface tension liquid-gas ([2]; x1 = 0.2): 29.5 ± 0.4 mN/m | surface tension liquid-gas ([2]; x1 = 0.3): 31.8 ± 0.5 mN/m | surface tension liquid-gas ([2]; x1 = 0.4): 33.7 ± 0.5 mN/m | surface tension liquid-gas ([2]; x1 = 0.5): 35.6 ± 0.5 mN/m | surface tension liquid-gas ([2]; x1 = 0.6): 37 ± 0.5 mN/m | surface tension liquid-gas ([2]; x1 = 0.7): 38.9 ± 0.6 mN/m | surface tension liquid-gas ([2]; x1 = 0.8): 40.6 ± 0.6 mN/m | surface tension liquid-gas ([2]; x1 = 0.9): 42.4 ± 0.6 mN/m | surface tension liquid-gas ([2]; x1 = 1): 44.3 ± 0.6 mN/m

CCn1cc[n+](C)c1.COP(=O)([O-])OC [1-ethyl-3-methylimidazolium dimethylphosphate] + O
surface tension liquid-gas ([2]; x1 = 0.1): 48.9 ± 0.69 mN/m | surface tension liquid-gas ([2]; x1 = 0.2): 47 ± 0.63 mN/m | surface tension liquid-gas ([2]; x1 = 0.3): 46.4 ± 0.62 mN/m | surface tension liquid-gas ([2]; x1 = 0.4): 46.2 ± 0.62 mN/m | surface tension liquid-gas ([2]; x1 = 0.5): 45.1 ± 0.61 mN/m | surface tension liquid-gas ([2]; x1 = 0.6): 44.2 ± 0.6 mN/m | surface tension liquid-gas ([2]; x1 = 0.7): 44.1 ± 0.61 mN/m | surface tension liquid-gas ([2]; x1 = 0.8): 44.5 ± 0.62 mN/m | surface tension liquid-gas ([2]; x1 = 0.9): 44.4 ± 0.62 mN/m | surface tension liquid-gas ([2]; x1 = 1): 44.3 ± 0.62 mN/m

CCO [ethanol]
surface tension liquid-gas [1]: 21.9 ± 0.3 mN/m | mass density [1]: 785.83 ± 0.17 kg/m3

CCO [ethanol] + CCCCOP(=O)([O-])OCCCC.CCCCn1cc[n+](C)c1
surface tension liquid-gas ([2]; x2 = 0): 21.9 ± 0.3 mN/m

CCO [ethanol] + CCCCn1cc[n+](C)c1.COP(=O)([O-])OC
surface tension liquid-gas ([2]; x2 = 0): 21.9 ± 0.3 mN/m

CCO [ethanol] + CCCCn1cc[n+](CC)c1.CCOP(=O)([O-])OCC
surface tension liquid-gas ([2]; x2 = 0): 21.9 ± 0.3 mN/m

CCO [ethanol] + CCOP(=O)([O-])OCC.CCn1cc[n+](C)c1
surface tension liquid-gas ([2]; x2 = 0): 21.9 ± 0.3 mN/m

CCO [ethanol] + CCOP(=O)([O-])OCC.CCn1cc[n+](CC)c1
surface tension liquid-gas ([2]; x2 = 0): 21.9 ± 0.3 mN/m

CCO [ethanol] + CCn1cc[n+](C)c1.COP(=O)([O-])OC
surface tension liquid-gas ([2]; x2 = 0): 21.9 ± 0.3 mN/m

CCO [ethanol] + COP(=O)([O-])OC.Cn1cc[n+](C)c1
surface tension liquid-gas ([2]; x2 = 0): 21.9 ± 0.3 mN/m

CO [methanol]
surface tension liquid-gas [1]: 22.4 ± 0.3 mN/m | mass density [1]: 786.55 ± 0.17 kg/m3

CO [methanol] + CCCCOP(=O)([O-])OCCCC.CCCCn1cc[n+](C)c1
surface tension liquid-gas ([2]; x2 = 0): 22.4 ± 0.3 mN/m

CO [methanol] + CCCCn1cc[n+](C)c1.COP(=O)([O-])OC
surface tension liquid-gas ([2]; x2 = 0): 22.4 ± 0.3 mN/m

CO [methanol] + CCCCn1cc[n+](CC)c1.CCOP(=O)([O-])OCC
surface tension liquid-gas ([2]; x2 = 0): 22.4 ± 0.3 mN/m

CO [methanol] + CCOP(=O)([O-])OCC.CCn1cc[n+](C)c1
surface tension liquid-gas ([2]; x2 = 0): 22.4 ± 0.3 mN/m

CO [methanol] + CCOP(=O)([O-])OCC.CCn1cc[n+](CC)c1
surface tension liquid-gas ([2]; x2 = 0): 22.4 ± 0.3 mN/m

CO [methanol] + CCn1cc[n+](C)c1.COP(=O)([O-])OC
surface tension liquid-gas ([2]; x2 = 0): 22.4 ± 0.3 mN/m

CO [methanol] + COP(=O)([O-])OC.Cn1cc[n+](C)c1
surface tension liquid-gas ([2]; x2 = 0): 22.4 ± 0.3 mN/m

O [water]
surface tension liquid-gas [1]: 71.9 ± 0.9 mN/m

O [water] + CCCCOP(=O)([O-])OCCCC.CCCCn1cc[n+](C)c1
surface tension liquid-gas ([2]; x2 = 0): 71.9 ± 0.9 mN/m

O [water] + CCCCn1cc[n+](C)c1.COP(=O)([O-])OC
surface tension liquid-gas ([2]; x2 = 0): 71.9 ± 0.9 mN/m

O [water] + CCCCn1cc[n+](CC)c1.CCOP(=O)([O-])OCC
surface tension liquid-gas ([2]; x2 = 0): 71.9 ± 0.9 mN/m

O [water] + CCOP(=O)([O-])OCC.CCn1cc[n+](C)c1
surface tension liquid-gas ([2]; x2 = 0): 71.9 ± 0.9 mN/m

O [water] + CCOP(=O)([O-])OCC.CCn1cc[n+](CC)c1
surface tension liquid-gas ([2]; x2 = 0): 71.9 ± 0.9 mN/m

O [water] + CCn1cc[n+](C)c1.COP(=O)([O-])OC
surface tension liquid-gas ([2]; x2 = 0): 71.9 ± 0.91 mN/m

O [water] + COP(=O)([O-])OC.Cn1cc[n+](C)c1
surface tension liquid-gas ([2]; x2 = 0): 71.9 ± 0.9 mN/m
